In patent US20130337564A1, “Treatment of Pluripotent Cells” (Janssen Biotech, Inc., priority 2012, published 2013):

What was measured:
[1] = system: human embryonic stem cell line H1; assay: Dose titration secondary assay: cell number, H1; format: cell-based; settings: Homo sapiens, Embryonic stem cell, positive control (Wnt3a/Activin A) normalized to 1.000; for activity at 0.156 µM: Conc 0.156 μM; for activity at 0.313 µM: Conc 0.313 μM; for activity at 0.625 µM: Conc 0.625 μM; for activity at 1.25 µM: Conc 1.25 μM; for activity at 2.5 µM: Conc 2.5 μM; for activity at 5 µM: Conc 5 μM; for activity at 10 µM: Conc 10 μM
Description: It was important to confirm the activity of hits identified from primary screening and further analyze the range of activity by dose titration. New samples of a selective subset of primary screening hits were obtained as dry powders, solubilized to make fresh stock reagents, and diluted into secondary confirmation assays to evaluate effects on human embryonic stem cells.
Culture of two human embryonic stem cells (H1 and H9) was conducted as described in Example 1. Colonies of cells were maintained in an undifferentiated, pluripotent state on Matrigel™ ([…]) coated polystyrene plastic, using a 1:30 dilution of Matrigel™ in DMEM:F12 to coat the surface. Cells were split by enzymatic passage every four days on average. Passage was performed by exposing cell monolayers to a solution of collagenase (1 mg/ml; Sigma-Aldrich) for 10 to 60 minutes at 37° C. followed by gentle scraping with a pipette tip to recover cell clusters. Clusters were allowed to sediment by gravity, then washed to remove residual collagenase. Cell clusters were split at a 1:3 ratio for maintenance culture or a 1:1 ratio for subsequent assay. The human embryonic stem cell lines were maintained at less than passage 50 and routinely evaluated for normal karyotypic phenotype and absence of mycoplasma contamination.
Cell clusters of the H1 or H9 human embryonic stem cell lines used in the assay were evenly resuspended in culture medium and plated onto Matrigel™-coated 96-well Packard VIEWPLATES (PerkinElmer) in volumes of 100 μl/well. MEF conditioned medium supplemented with 8 ng/ml bFGF was used for initial plating and expansion. Daily feeding was conducted by aspirating spent culture medium from each well and replacing with an equal volume of fresh medium. Cultures were allowed to expand one to three days after plating prior to initiating assay. Plates were maintained at 37° C., 5% CO2 in a humidified box for the duration of assay.
A subset of hits resulting from primary screening was used for follow-up study and subsequent secondary assays. Twenty compounds available as dry powders were solubilized as 10 mM stocks in DMSO and stored dessicated at […] until use Immediately prior to assay, compound stocks were diluted 1:1000 to make 10 μM test compound in DMEM:F12 base medium (Invitrogen) supplemented with 0.5% FCS (HyClone) and 100 ng/ml Activin A (R&D Biosystems). This was further diluted two-fold in series to make a seven point dilution curve for each compound, also in DMEM:F12 base medium with 0.5% FCS and 100 ng/ml Activin A.
Assay was initiated by aspirating culture medium from cell monolayers in each well followed by three washes in PBS to remove residual growth factors and serum. Test volumes of 100 μl per well were added back containing medium with 0.5% FCS and different concentrations of inhibitor compounds with 100 ng/ml Activin A, without Wnt3a. Positive control wells contained the same base medium with 0.5% FCS and with 20 ng/ml Wnt3a (R&D Biosystems) in the absence of test compound. Negative control wells contained the same base medium with 0.5% FCS, in the absence of Activin A, Wnt3a, or test compound. Assay wells were aspirated and fed again with identical concentrations of test compound or control solutions on day 2 of assay. On days 3 and 4, all assay wells were aspirated and fed with DMEM:F12 supplemented with 2% FCS and 100 ng/ml Activin A in the absence of both test compound or Wnt3a. Parallel negative control wells were maintained on days 3 and 4 in DMEM:F12 base medium with 2% FCS.
At the end of culture, cells in 96-well plates were washed twice with PBS then fixed with 4% paraformaldehyde at room temperature for 20 minutes, washed three times more with PBS, and then permeabilized with 0.5% Triton X-100 for 20 minutes at room temperature. After fixing and permeabilizing, cells were washed again three times with PBS and then blocked with 4% chicken serum (Invitrogen) in PBS for 30 minutes at room temperature. […]

[2] = MTS viability (toxicity) assay of cells expressing pluripotency markers; format: cell-based, human; settings: human, MTS on day 4, relative to Activin A + Wnt3a positive control, read-out: % Control (percentage viability of control); for viability at 4 days, 2.5 μM: cmpd conc 2.5 μM; for viability at 4 days, 5 μM: cmpd conc 5 μM; for viability at 4 days, 10 μM: cmpd conc 10 μM
Outline: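 Cells expressing pluripotency markers, derived from human embryonic stem cells, were plated at 20,000 cells per well in 96-well clear-bottom plates and cultured overnight. Test compounds were applied in assay medium on days 1 and 2, and compound-free medium on days 3 and 4. On day 4, MTS was added and optical density at 490 nm was read in duplicate.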

| Structure (SMILES) | activity at 0.156 µM [1] [%] | activity at 0.313 µM [1] [%] | activity at 0.625 µM [1] [%] | activity at 1.25 µM [1] [%] | activity at 2.5 µM [1] [%] | activity at 5 µM [1] [%] | activity at 10 µM [1] [%] | viability at 4 days, 2.5 μM [2] [%] | viability at 4 days, 5 μM [2] [%] | viability at 4 days, 10 μM [2] [%] |
| --- | --- | --- | --- | --- | --- | --- | --- | --- | --- | --- |
| O=C1NC(=O)C(c2cn(CCCO)c3ncccc23)=C1c1cnccn1 [Compound 47, 3-[1-(3-Hydroxypropyl)-1H-pyrrolo[2,3-b]pyridin-3-yl]-4-pyrazin-2-yl-1H-pyrrole-2,5-dione] | 71.2 | 74.2 | 83.2 | 101 | 93.2 | 110 | 105 | – | – | – |
| O=C1NC(=O)C(c2nn(CCCO)c3ccccc23)=C1c1cn(-c2cccnc2)c2ccc(Cl)cc12 [Compound 52, 3-(5-Chloro-1-pyridin-3-yl-1H-indol-3-yl)-4-[1-(3-hydroxypropyl)-1H-indazol-3-yl]-1H-pyrrole-2,5-dione] | 82.6 | 103 | 130 | 145 | 110 | 2.4 | 0 | 92 | 40.1 | 2.3 |
| CN(C)CCCn1c2c(c3ccccc31)C1=C(C(=O)NC1=O)N(c1cccc(Cl)c1)C2 [Compound 101, 4-(3-Chlorophenyl)-6-[3-(dimethylamino)propyl]-5,6-dihydropyrrolo[3′,4′:5,6]pyrido[3,4-b]indole-1,3(2H,4H)-dione] | 81.2 | 61.7 | 69.9 | 116 | 100 | 76.8 | 49.6 | 100 | 95.9 | 1.3 |
| O=C1NC(=O)C(c2cn(CCOCCOCCO)c3ccccc23)=C1c1cn(CCO)c2ccccc12 [Compound 110, 3-[1-(2-Hydroxyethyl)-1H-indol-3-yl]-4-{1-[2-({2-[(2-hydroxyethyl)oxy]ethyl}oxy)ethyl]-1H-indol-3-yl}-1H-pyrrole-2,5-dione] | 97.4 | 116 | 119 | 111 | 117 | 53 | 12.9 | 104 | 98.5 | 81.6 |
| O=C1NC(=O)C(c2cn(CCOCCOCCNC3CCCc4ccccc43)c3ccccc23)=C1c1cn(CCNC2CCCc3ccccc32)c2ccccc12 (stereo not shown) [Compound 144, 3-{1-[2-(1,2,3,4-Tetrahydronaphthalen-1-ylamino)ethyl]-1H-indol-3-yl}-4-(1-{2-[(2-{[2-(1,2,3,4-tetrahydronaphthalen-1-ylamino)ethyl]oxy}ethyl)oxy]ethyl}-1H-indol-3-yl)-1H-pyrrole-2,5-dione] | 59.4 | 73.4 | 89.5 | 55.2 | 19.2 | 0 | 0 | 23.9 | 2.5 | 2.4 |
| CN(C)c1cccc(-n2cc(C3=C(c4nn(CCO)c5ccccc45)C(=O)NC3=O)c3ccccc32)c1 [Compound 145, 3-{1-[3-(Dimethylamino)phenyl]-1H-indol-3-yl}-4-[1-(2-hydroxyethyl)-1H-indazol-3-yl]-1H-pyrrole-2,5-dione] | 46.9 | 66.5 | 71.3 | 128 | 135 | 33.9 | 2.1 | 94.5 | 68.4 | – |
| CN(C)c1ccc(-n2cc(C3=C(c4nn(CCO)c5ccccc45)C(=O)NC3=O)c3cc(Cl)ccc32)cn1 [Compound 148, 3-{5-Chloro-1-[6-(dimethylamino)pyridin-3-yl]-1H-indol-3-yl}-4-[1-(2-hydroxyethyl)-1H-indazol-3-yl]-1H-pyrrole-2,5-dione] | 121 | 121 | 136 | 165 | 172 | 101 | 0.2 | 20.4 | 3.8 | 3.5 |
| COC(=O)c1cncc(-n2cc(C3=C(c4nn(CCO)c5ccccc45)C(=O)NC3=O)c3cc(Cl)ccc32)c1 [Compound 150, Methyl 5-(5-chloro-3-{4-[1-(2-hydroxyethyl)-1H-indazol-3-yl]-2,5-dioxo-2,5-dihydro-1H-pyrrol-3-yl}-1H-indol-1-yl)pyridine-3-carboxylate] | 104 | 124 | 102 | 121 | 129 | 116 | 5.2 | 94.8 | 84.9 | 14.3 |
| OCCC#Cc1nc(-c2ccc(F)cc2)c(-c2ccncc2)n1CCCc1ccccc1 [Compound 158, 4-[4-(4-Fluorophenyl)-1-(3-phenylpropyl)-5-pyridin-4-yl-1H-imidazol-2-yl]but-3-yn-1-ol] | 110 | 122 | 123 | 116 | 102 | 90.5 | 5.3 | 93.2 | 96.2 | 66.5 |
| CN(CCO)CCCn1nc(C2=C(c3cn(-c4cccnc4)c4ccccc34)C(=O)NC2=O)c2ccccc21 [Compound 198, 3-(1-{3-[(2-Hydroxyethyl)(methyl)amino]propyl}-1H-indazol-3-yl)-4-(1-pyridin-3-yl-1H-indol-3-yl)-1H-pyrrole-2,5-dione] | 82.2 | 75.4 | 74.2 | 89.9 | 103 | 106 | 101 | 92.5 | 83.8 | 49.7 |
| O=C1NC(=O)C(c2cn(-c3cccnc3)c3ccccc23)=C1c1cn(CCO)c2ccccc12 [Compound 206, 3-[1-(2-Hydroxyethyl)-1H-indol-3-yl]-4-(1-pyridin-3-yl-1H-indol-3-yl)-1H-pyrrole-2,5-dione] | 80.4 | 93.1 | 109 | 112 | 102 | 116 | 3.9 | 93.1 | 90.2 | 7.3 |
